Experiments:
[1] = In vitro metabolic stability in mouse liver microsomes
Resazurin = conditions: human
MDA-MB-231 cells [2] = assay: Resazurin; conditions: MDA-MB-231 cells
G9a [3] = target: T1, G9a (Homo sapiens, UniProt Q96KQ7); assay: Competition of inhibitor with cofactor SAM; type: biochemical; conditions: Km app of SAM versus inhibitor concentration
T1 sequence (Q96KQ7 1-1210): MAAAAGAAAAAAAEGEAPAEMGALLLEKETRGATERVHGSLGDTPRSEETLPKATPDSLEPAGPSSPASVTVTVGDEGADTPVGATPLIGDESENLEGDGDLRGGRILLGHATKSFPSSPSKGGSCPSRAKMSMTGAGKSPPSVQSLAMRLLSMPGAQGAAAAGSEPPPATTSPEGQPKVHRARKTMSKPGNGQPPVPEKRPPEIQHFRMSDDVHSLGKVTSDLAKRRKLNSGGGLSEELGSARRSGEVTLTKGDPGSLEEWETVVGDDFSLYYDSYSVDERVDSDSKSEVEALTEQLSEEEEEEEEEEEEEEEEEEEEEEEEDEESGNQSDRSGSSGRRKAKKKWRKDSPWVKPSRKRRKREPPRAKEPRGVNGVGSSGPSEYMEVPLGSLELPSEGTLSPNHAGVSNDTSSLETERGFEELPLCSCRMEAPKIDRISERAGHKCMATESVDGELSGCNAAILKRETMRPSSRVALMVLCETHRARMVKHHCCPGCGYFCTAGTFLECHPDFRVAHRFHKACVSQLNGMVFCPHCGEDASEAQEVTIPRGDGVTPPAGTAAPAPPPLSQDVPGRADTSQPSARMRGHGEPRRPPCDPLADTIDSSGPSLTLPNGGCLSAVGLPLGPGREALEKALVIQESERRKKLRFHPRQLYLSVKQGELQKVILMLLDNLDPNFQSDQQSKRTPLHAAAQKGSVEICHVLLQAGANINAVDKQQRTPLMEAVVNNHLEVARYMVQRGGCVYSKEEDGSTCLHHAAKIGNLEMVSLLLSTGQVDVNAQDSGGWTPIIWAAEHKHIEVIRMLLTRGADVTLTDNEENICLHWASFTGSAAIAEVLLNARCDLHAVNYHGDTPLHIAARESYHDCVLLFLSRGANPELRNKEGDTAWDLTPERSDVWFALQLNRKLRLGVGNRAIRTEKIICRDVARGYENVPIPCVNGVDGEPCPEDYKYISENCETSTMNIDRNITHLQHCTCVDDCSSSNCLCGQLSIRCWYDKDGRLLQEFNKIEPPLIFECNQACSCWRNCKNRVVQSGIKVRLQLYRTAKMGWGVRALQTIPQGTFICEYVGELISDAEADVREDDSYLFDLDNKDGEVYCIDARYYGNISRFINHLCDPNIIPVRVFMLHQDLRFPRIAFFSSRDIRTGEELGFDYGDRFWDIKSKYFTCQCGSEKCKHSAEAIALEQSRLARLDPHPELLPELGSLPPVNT

[4] = Resazurin cell toxicity assay; type: cell-based; conditions: human, PANC-1 cells, Cell Toxicity EC50, PANC-1 cells
[5] = Resazurin cell toxicity assay; type: cell-based; conditions: human, U2OS cells
PRC2 – EZH2 = PRC2 – EZH2 (Homo sapiens, UniProt Q15910); assay: biochemical
[6] = test system: 13 other methyltransferases; type: biochemical; conditions: read-out: IC50 against 13 other methyltransferases
MDA-MB-231 cells [7] = assay: Clonogenicity assay; type: cell-based; conditions: 2 weeks, 0.5 or 1 µM
[8] = test system: 44 GPCRs, transporters, and ion channels; type: binding
[9] = test system: panel of 50 representative kinases; assay: Kinase selectivity panel; type: biochemical; conditions: at 10,000 nM
G9a [10] = target: T1, G9a; conditions: Km app of peptide versus inhibitor concentration
PANC-1 cells = assay: Clonogenicity assay; type: cell-based; conditions: 2 weeks, 0.5 or 1 µM

PRC2 – EZH2, sequence (Q15910 whole entry): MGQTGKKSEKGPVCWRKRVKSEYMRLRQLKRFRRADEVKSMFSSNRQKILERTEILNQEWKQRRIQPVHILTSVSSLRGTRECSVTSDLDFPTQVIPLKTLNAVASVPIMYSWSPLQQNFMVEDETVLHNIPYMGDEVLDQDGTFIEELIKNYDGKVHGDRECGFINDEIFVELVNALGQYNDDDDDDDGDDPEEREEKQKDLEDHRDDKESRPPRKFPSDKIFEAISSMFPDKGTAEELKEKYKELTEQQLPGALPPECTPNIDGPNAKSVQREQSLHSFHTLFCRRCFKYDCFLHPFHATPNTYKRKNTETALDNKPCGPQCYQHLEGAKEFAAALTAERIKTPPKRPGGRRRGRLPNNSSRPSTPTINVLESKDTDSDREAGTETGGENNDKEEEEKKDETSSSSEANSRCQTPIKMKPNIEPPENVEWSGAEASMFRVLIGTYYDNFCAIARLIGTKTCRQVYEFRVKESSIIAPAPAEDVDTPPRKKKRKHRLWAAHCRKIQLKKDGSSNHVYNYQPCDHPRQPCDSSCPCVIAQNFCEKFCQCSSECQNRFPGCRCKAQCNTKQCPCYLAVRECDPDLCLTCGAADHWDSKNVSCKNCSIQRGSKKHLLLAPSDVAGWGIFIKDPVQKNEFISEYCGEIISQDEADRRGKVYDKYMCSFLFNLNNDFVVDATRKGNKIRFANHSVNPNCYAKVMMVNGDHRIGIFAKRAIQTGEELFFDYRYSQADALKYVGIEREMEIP
PRC2 – EZH2, sequence (O75530 whole entry, further chain): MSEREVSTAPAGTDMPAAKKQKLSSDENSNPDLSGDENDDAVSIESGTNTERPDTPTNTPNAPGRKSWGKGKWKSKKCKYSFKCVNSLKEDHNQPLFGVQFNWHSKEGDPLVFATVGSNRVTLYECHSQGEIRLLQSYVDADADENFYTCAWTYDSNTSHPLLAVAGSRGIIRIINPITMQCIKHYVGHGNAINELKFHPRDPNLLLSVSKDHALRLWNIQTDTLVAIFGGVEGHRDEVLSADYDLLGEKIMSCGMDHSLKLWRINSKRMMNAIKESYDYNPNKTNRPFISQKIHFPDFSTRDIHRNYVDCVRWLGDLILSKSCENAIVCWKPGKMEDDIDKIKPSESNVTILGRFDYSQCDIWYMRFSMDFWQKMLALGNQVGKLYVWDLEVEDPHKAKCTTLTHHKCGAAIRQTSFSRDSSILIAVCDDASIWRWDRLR
PRC2 – EZH2, sequence (Q15022 whole entry, further chain): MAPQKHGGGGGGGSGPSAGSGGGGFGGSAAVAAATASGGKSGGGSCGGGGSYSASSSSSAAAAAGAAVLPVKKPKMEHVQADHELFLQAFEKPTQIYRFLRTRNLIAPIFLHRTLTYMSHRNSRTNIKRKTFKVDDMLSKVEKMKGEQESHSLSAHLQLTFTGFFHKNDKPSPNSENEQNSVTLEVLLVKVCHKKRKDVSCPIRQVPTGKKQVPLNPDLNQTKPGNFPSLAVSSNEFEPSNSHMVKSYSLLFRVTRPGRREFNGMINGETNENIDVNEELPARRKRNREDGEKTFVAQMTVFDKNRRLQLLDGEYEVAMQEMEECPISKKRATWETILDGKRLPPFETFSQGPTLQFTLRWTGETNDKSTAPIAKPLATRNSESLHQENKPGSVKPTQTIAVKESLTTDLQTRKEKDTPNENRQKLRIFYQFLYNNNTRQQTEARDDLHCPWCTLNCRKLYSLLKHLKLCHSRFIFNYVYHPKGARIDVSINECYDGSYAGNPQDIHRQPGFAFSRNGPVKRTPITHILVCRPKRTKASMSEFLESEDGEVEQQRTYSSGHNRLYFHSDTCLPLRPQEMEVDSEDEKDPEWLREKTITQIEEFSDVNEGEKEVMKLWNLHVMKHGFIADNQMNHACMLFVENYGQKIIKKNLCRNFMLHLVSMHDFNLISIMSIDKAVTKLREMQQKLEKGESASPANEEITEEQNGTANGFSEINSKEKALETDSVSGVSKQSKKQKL

Question: For COc1cc2c(NC3CCN(C(C)C)CC3)nc(N3CCOCC3)nc2cc1OCCCN1CCCC1 [Compound 13, N-(1-Isopropylpiperidin-4-yl)-6-methoxy-2-morpholino-7-(3-(pyrrolidin-1-yl)propoxy)quinazolin-4-amine], which CLint [1] is on record?
Answer: 0.7 mL/min/g liver

Question: Which EC50 at 48 h (Resazurin) does the source give for COc1cc2c(NC3CCN(C(C)C)CC3)nc(N3CCCCC3)nc2cc1OCCCN1CCCC1 [Compound 16] here?
Answer: 7 µM

Question: Which EC50 at 48 h (Resazurin) does the source give for COc1cc2c(NC3CCN(C4CC4)CC3)nc(N3CCS(=O)(=O)CC3)nc2cc1OCCCN1CCCC1 [Compound 19, 4-(4-((1-Cyclopropylpiperidin-4-yl)amino)-6-methoxy-7-(3-(pyrrolidin-1-yl)propoxy)quinazolin-2-yl)thiomorpholine 1,1-dioxide] here?
Answer: > 50 µM

Question: Which CLint [1] does the source give for COc1cc2c(NC3CCN(C(C)C)CC3)nc(C3CCCCC3)nc2cc1OCCCN1CCCC1 [Compound 5, reference compound] here?
Answer: 1.0 mL/min/g liver

Question: With COc1cc2c(NC3CCN(C(C)C)CC3)nc(C3CCOCC3)nc2cc1OCCCN1CCCC1 [Compound 22, N-(1-Isopropylpiperidin-4-yl)-6-methoxy-7-(3-(pyrrolidin-1-yl)propoxy)-2-(tetrahydro-2H-pyran-4-yl)quinazolin-4-amine] as the compound, how does the EC50 at 48 h (Resazurin) read?
Answer: > 50 µM

Question: What about the “Tox/function Ratio” value (MDA-MB-231 cells [2]; toxicity EC50 divided by functional IC50) of the same compound?
Answer: > 130

Question: And the CLint [1]?
Answer: 4.7 mL/min/g liver

Question: With COc1cc2c(NC3CCN(C(C)C)CC3)nc(N3CCC(F)(F)CC3)nc2cc1OCCCN1CCCC1 [Compound 7, 2-(4,4-Difluoropiperidin-1-yl)-N-(1-isopropylpiperidin-4-yl)-6-methoxy-7-(3-(pyrrolidin-1-yl)propoxy)quinazolin-4-amine] as the compound, how does the “Mechanism of action versus cofactor SAM” value (G9a [3]) read?
Answer: non-competitive with the cofactor SAM

Question: What about the CLint [1] of the same compound?
Answer: 0.5 mL/min/g liver

Question: And the EC50 at 48 h [4]?
Answer: > 3 µM

Question: What about the EC50 at 48 h [5] of the same compound?
Answer: > 3 µM

Question: And the IC50 (PRC2 – EZH2)?
Answer: > 5 µM

Question: And the IC50 [6]?
Answer: > 50 µM

Question: And the Effect on clonogenicity (MDA-MB-231 cells [7])?
Answer: no effect on clonogenicity

Question: What about the “Inhibition against 5 targets of the 44-target panel” value [8] of the same compound?
Answer: > 50%

Question: And the “Inhibition against 39 targets of the 44-target panel” value [8]?
Answer: less than 50%

Question: What about the “Inhibition of panel of 50 representative kinases” value [9] of the same compound?
Answer: less than 20%

Question: And the “Mechanism of action versus peptide substrate” value (G9a [10])?
Answer: competitive with the peptide substrate

Question: What about the Effect on clonogenicity (PANC-1 cells) of the same compound?
Answer: reduced clonogenicity in PANC-1 cells in a concentration-dependent manner

Question: For COc1cc2c(NC3CCN(C(C)C)CC3)nc(N3CC(F)(F)C(F)(F)C3)nc2cc1OCCCN1CCCC1 [Compound 15, N-(1-Isopropylpiperidin-4-yl)-6-methoxy-7-(3-(pyrrolidin-1-yl)propoxy)-2-(3,3,4,4-tetrafluoropyrrolidin-1-yl)quinazolin-4-amine], which CLint [1] is on record?
Answer: < 0.5 mL/min/g liver

Question: With COc1cc2c(NC3CCN(C(C)C)CC3)nc(N3CCCCCC3)nc2cc1OCCCN1CCCC1 [Compound 17] as the compound, how does the EC50 (MDA-MB-231 cells [2]; read-out: Cell Toxicity EC50, 48 h) read?
Answer: 5.7 µM

From article PMC3880643 (Journal of medicinal chemistry, 2013)
